According to patent US12589158B2 (priority 2022, dated 2026):
Where a SMILES comes first, the peptide text is derived from it.

Tests used:
human GLP-1 receptor = molecular target: T1, human GLP-1 receptor (Homo sapiens, UniProt P43220); assay: In vitro binding activity to human GLP-1 receptor ([125I]GLP-1, crude cellular membranes); conditions: ratio of the Ki value of the endogenous ligand to the Ki value of the test compound; larger = stronger binding
T1 construct: expressed in transfected cells; crude membranes
T1 sequence (P43220 24-463): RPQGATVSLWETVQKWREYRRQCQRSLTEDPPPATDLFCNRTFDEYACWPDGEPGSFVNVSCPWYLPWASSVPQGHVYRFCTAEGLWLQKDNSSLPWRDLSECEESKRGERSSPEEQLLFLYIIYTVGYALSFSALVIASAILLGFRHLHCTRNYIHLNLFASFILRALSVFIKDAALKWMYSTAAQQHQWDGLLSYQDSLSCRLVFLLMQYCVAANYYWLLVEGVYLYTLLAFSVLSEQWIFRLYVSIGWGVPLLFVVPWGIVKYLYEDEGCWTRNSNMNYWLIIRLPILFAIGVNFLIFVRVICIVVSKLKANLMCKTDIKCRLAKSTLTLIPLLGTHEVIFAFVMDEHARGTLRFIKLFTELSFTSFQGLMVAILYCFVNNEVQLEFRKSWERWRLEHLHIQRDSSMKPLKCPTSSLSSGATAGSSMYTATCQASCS
Protocol: 89 μL of membrane dissolved in binding buffer (50 mM Hepes, pH 7.4, 5 mM MgCl2, 5 mM EDTA, 0.005% TWEEN, 0.005% HSA) is transferred to a 96-well test plate (5 μg/well). The compound is serially diluted in DMSO, and then, 1 μL of the diluted compound or 100% DMSO is added to the test plate containing the membrane solution. 10 μL of [^125I] […] The test plate is left at room temperature for 90 minutes. The membrane complexes are harvested into a GF/B plate pre-coated with 0.5% PEI by using a Cell Harvester, and washed for 3 times with 500 μL of pre-cooled elution buffer (50 mM Hepes, pH 7.4, 500 mM NaCl) at 4° C. After drying at 37° C. for 2 hours, 50 μL of scintillation fluid is added to each well. The plate is read with a MicroBeta2 scintillation counter after sealing and settling for at least 1 hour so as to determine the membrane bound radioligand level.
(§1) The absolute IC50 concentration of the compound is derived by non-linear regression of the binding percent of [^125I] […] The IC50 concentration is converted to Ki (Ki is the inhibition constant) using the Cheng-Prusoff equation.

[1] = Pharmacokinetics following single administration in SD rat; set-up: species or system SD rats; conditions: in vivo, sc, 50 nmol/kg
In short: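 Male SD rats (230–268 g, n=3) dosed once at 50.0 nmol/kg s.c. or 25.0 nmol/kg i.v. Plasma protein precipitated with acetonitrile containing internal standards; drug concentration measured by LC-MS/MS.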

db/db mice = assay: Pharmacodynamics in db/db mice, single subcutaneous administration (blood glucose); assay type: in vivo; conditions: longest time with random blood glucose P<0.05 vs. vehicle
Protocol: The “inhibition of blood glucose AUC” as disclosed in the present invention is the reduction percentage of blood glucose AUC in the group taken the test compound as compared with the group taken the Vehicle. Inhibition of blood glucose AUC=(blood glucose AUCVehicle-blood glucose AUCtest compound)/blood glucose AUCVehicle.
In this study, 8-9 week old male db/db mice are used. The db/db mice are placed in an individual ventilated cage (IVC) facility with a controlled temperature (20-26° C.) and humidity (40-70%) and a controlled 12h: 12 h light-dark cycle. The mice received food and water ad libitum. Blood is sampled at the tail tip, and the fasting blood glucose is measured by a Roche blood glucose meter. The mice are randomly divided into groups according to the initial blood glucose and initial body weight (n=6/group), and each group had similar body weight and blood glucose.
After a single subcutaneous administration, the random blood glucoses are recorded at the set time point (0 to 120 hours, the recording of the random blood glucose is stopped until there is no difference between the random blood glucose of the compound and that of the vehicle group), and the daily body weight and food intake are also recorded. The data results are statistically analyzed using GraphPad Prism8, and the statistical differences among the groups are analyzed following a T-Test. […]

human GIP receptor = molecular target: T2, human GIP receptor (Homo sapiens, UniProt P48546); assay: In vitro binding activity to human GIP receptor ([125I]GIP, crude cellular membranes); conditions: ratio of the Ki value of the endogenous ligand to the Ki value of the test compound; larger = stronger binding
T2 construct: expressed in transfected cells; crude membranes
T2 sequence (P48546 22-466): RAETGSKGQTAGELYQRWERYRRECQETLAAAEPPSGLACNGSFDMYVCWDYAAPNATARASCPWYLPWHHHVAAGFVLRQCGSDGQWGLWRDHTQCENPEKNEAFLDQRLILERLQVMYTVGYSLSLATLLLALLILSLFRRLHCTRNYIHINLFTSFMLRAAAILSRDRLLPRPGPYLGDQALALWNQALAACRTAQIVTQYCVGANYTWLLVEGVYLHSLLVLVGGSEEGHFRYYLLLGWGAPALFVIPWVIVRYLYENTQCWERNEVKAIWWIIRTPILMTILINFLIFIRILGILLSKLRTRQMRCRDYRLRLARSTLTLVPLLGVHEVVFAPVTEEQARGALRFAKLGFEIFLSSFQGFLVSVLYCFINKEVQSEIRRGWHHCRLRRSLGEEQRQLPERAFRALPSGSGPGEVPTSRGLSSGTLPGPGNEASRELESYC
Protocol: The compound is serially diluted in DMSO, and then, 2 μL of the diluted compounds or 100% DMSO is added to the test plate containing the membrane solution. […] The test plate is left at room temperature for 90 minutes. […] After drying at 37° C. for 2 hours, 50 μL of scintillation fluid is added to each well. The plate is read with a MicroBeta2 scintillation counter after sealing and settling for at least 1 hour so as to determine the membrane bound radioligand level.
as §1

Row | Compound | GLP-1R Ki ratio (human GLP-1 receptor) | MRT inf [1] [h] | MRT last [1] [h] | Hypoglycemic Duration (db/db mice; Group 2, single s.c. 10 nmol/kg) [h] | GIPR Ki ratio (human GIP receptor) | Hypoglycemic Duration (db/db mice; Group 1, single s.c. 10 nmol/kg) [h]
1 | CC[C@H](C)[C@H](NC(=O)C(C)(C)NC(=O)[C@H](Cc1ccc(O)cc1)NC(=O)[C@H](CC(=O)O)NC(=O)[C@H](CO)NC(=O)[C@@H](NC(=O)C(C)(Cc1ccccc1)NC(=O)[C@@H](NC(=O)CNC(=O)[C@H](CCC(=O)O)NC(=O)C(C)(C)NC(=O)[C@@H](N)Cc1ccc(O)cc1)[C@@H](C)O)[C@@H](C)O)C(=O)NC(C)(C)C(=O)N[C@@H](CC(C)C)C(=O)N[C@@H](CC(=O)O)C(=O)N[C@@H](CCCCN)C(=O)N[C@@H](CCC(N)=O)C(=O)N[C@@H](C)C(=O)N[C@@H](CCC(N)=O)C(=O)N[C@@H](C)C(=O)N[C@@H](CCC(=O)O)C(=O)N[C@@H](Cc1ccccc1)C(=O)N[C@H](C(=O)N[C@@H](CCCCNC(=O)COCCOCCNC(=O)COCCOCCNC(=O)CC[C@H](NC(=O)CC[C@H](NC(=O)CC[C@H](NC(=O)CCCCCCCCCCCCCCCCC(=O)O)C(=O)O)C(=O)O)C(=O)O)C(=O)N[C@@H](Cc1c[nH]c2ccccc12)C(=O)N[C@@H](CC(C)C)C(=O)N[C@@H](CC(C)C)C(=O)N[C@@H](CCCCN)C(=O)NCC(=O)NCC(=O)N1CCC[C@H]1C(=O)N[C@@H](CO)C(=O)N[C@@H](CO)C(=O)NCC(=O)N[C@@H](C)C(=O)N1CCC[C@H]1C(=O)N1CCC[C@H]1C(=O)N1CCC[C@H]1C(=O)N[C@@H](CO)C(=O)N[C@@H](CCCCN)C(N)=O)C(C)C (stereo partly shown) [P015] | 0.17 | 31.4 ± 1.35 | 26.8 ± 0.557 | 32 |  | 
2 | CC[C@H](C)[C@H](NC(=O)C(C)(C)NC(=O)[C@H](Cc1ccc(O)cc1)NC(=O)[C@H](CC(=O)O)NC(=O)[C@H](CO)NC(=O)[C@@H](NC(=O)C(C)(Cc1ccccc1)NC(=O)[C@@H](NC(=O)CNC(=O)[C@H](CCC(=O)O)NC(=O)C(C)(C)NC(=O)[C@@H](N)Cc1ccc(O)cc1)[C@@H](C)O)[C@@H](C)O)C(=O)NC(C)(C)C(=O)N[C@@H](CC(C)C)C(=O)N[C@@H](CC(=O)O)C(=O)N[C@@H](CCCCN)C(=O)N[C@@H](CCC(N)=O)C(=O)N[C@@H](C)C(=O)N[C@@H](CCC(N)=O)C(=O)N[C@@H](C)C(=O)N[C@@H](CCC(=O)O)C(=O)N[C@@H](Cc1ccccc1)C(=O)N[C@H](C(=O)N[C@@H](CCCCN)C(=O)N[C@@H](Cc1c[nH]c2ccccc12)C(=O)N[C@@H](CC(C)C)C(=O)N[C@@H](CC(C)C)C(=O)N[C@@H](CCCCN)C(=O)NCC(=O)NCC(=O)N1CCC[C@H]1C(=O)N[C@@H](CO)C(=O)N[C@@H](CO)C(=O)NCC(=O)N[C@@H](C)C(=O)N1CCC[C@H]1C(=O)N1CCC[C@H]1C(=O)N1CCC[C@H]1C(=O)N[C@@H](CO)C(=O)N[C@@H](CCCCN)C(N)=O)C(C)C (stereo partly shown) [P001, reference compound] (HELM PEPTIDE1{Y.[Aib].E.G.T.[CC(Cc1ccccc1)(N[*:1])C(=O)[*:2]].T.S.D.Y.[Aib].I.[Aib].L.D.K.Q.A.Q.A.E.F.V.K.W.L.L.K.G.G.P.S.S.G.A.P.P.P.S.K.[am]}$$$$V2.0; N-terminus assumed) | 19.52 |  |  |  | 8.82 | 32
